The values below come from paper PMC10220285, “Development of an assay pipeline for the discovery of novel small molecule inhibitors of human glutathione peroxidases GPX1 and GPX4” (Redox Biology, 2023).

In assay [1] the target is T1, GR (glutathione reductase) (Homo sapiens, UniProt P00390).
T1 construct: made in house
T1 sequence (P00390 44-522): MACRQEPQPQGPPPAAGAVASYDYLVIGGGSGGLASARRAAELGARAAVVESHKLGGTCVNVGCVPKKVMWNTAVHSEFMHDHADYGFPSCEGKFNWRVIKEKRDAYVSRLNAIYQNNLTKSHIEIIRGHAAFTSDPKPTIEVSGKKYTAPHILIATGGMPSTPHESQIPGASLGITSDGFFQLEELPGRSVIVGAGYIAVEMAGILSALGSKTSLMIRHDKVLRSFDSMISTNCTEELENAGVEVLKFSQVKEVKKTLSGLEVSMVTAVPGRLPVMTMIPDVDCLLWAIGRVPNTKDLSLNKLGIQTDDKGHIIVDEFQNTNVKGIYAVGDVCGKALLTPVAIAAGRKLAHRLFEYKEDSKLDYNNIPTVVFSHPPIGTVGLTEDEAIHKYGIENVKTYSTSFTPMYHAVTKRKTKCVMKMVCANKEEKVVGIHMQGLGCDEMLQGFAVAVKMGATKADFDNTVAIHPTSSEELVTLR
Nature of the assay: GR counter-assay. In kind it is biochemical. The settings on record: Fig. 9 pan-selenoprotein inhibitors. The protocol: The compound plates were prepared as described previously. Purified recombinant human GPX1, GPX2, GPX4, GR, and TXNRD1 were produced and purified as previously reported [[48], [49], [50]]. As production of GPX2 was not optimized at the onset of screening, only GPX1 and GPX4 underwent library screening, and GPX2 was used as a follow-up.
Follow-up and orthogonal assays were run in quadruplicate unless otherwise stated. Assay schemes are illustrated in Fig. 1.
To identify false positive compounds that interfere with the primary assay through inhibition of GR, ‘hits’ from the primary screening were run against a GR counter assay to identify this possible off-target inhibition (Fig. 1C). Briefly, 3 μL enzyme mixture (100 nM GR, 0.01% BSA in TES buffer) was dispensed into columns […] of a 1536-well black medium-binding solid-bottom plates. The no-enzyme control (0.01% BSA in TES buffer) was included in column 1 and 2. Compounds and controls (23 nL) were added to each well with a pin tool (Kalypsys), and the plates were incubated for 30 min before 2 μL of substrate mixture (1 mM GSSG 0.4 mM NADPH in TES buffer) was added to each well and absorbance at 340 nm was measured at t = 0 and t = 20 min using a ViewLux Multimodal detector (PerkinElmer).
(§1) Percent activity was determined by first calculating delta RFU (decrease in fluorescence between t = 0 and t = 20/30 min in primary GPX, GR counter-screen, and TXNRD1 assays, or increase in fluorescence between t = 0 and t = 20 min in the Monobromobimane GPX endpoint assay), and normalizing enzyme activity using median delta RFU values for DMSO-treated enzyme control, and DMSO-treated no-enzyme controls.
Compound inhibitory activity in the qHTS assays was determined by plotting dose-response data for each sample and fitting with a four-parameter logistic fit to assess IC50 values, efficacy (maximal response), and AUC (area under the curve), as previously described. Hits were classified by the quality of the concentration-response curves (CRC). Curve classes −1.1 and −1.2 being the highest-confidence actives with complete CRCs and classes −2.1 and −2.2 being lower-confidence actives with incomplete CRCs.

The target of assay [2] is T2, GPX1 (Homo sapiens, UniProt P07203).
T2 construct: made in house; host or cells: E. coli
T2 sequence (P07203 1-203): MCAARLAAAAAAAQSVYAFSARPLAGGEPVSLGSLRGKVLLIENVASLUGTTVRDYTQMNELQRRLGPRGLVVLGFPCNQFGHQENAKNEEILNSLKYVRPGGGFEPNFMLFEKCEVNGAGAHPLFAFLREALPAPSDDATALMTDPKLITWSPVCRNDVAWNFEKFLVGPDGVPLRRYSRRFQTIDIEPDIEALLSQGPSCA
Briefly: nanoDSF thermal stabilization, GPX1. In kind it is binding. The protocol: Thermal stabilization of enzyme ± DMSO or ± compound was carried out in a Prometheus NT.48 instrument (NanoTemper Technologies) with an excitation wavelength of 280 nm. Intrinsic fluorescence at 330 nm and 350 nm was monitored while heating. Capillaries were filled with ∼10 μL of a solution of GPX1/4 (1 mg/mL), ± small molecule (100 μM) or DMSO, in TES buffer and placed into the instrument. The capillaries were subjected to a temperature range from 30 to 90 °C at a ramp rate of 2 °C/min. The ratio of the recorded emission intensities (350nm/330 nm) were plotted as a function of temperature. This ratio and first derivatives were calculated using the NanoTemper software and were plotted using GraphPad Prism.

In assay [3] the target is T2, GPX1. Briefly: Monobromobimane orthogonal endpoint assay, GPX1. The settings on record: initial tests comparing GR-coupled and mBBr assay formats. Type of assay: biochemical. The protocol: As an orthogonal assessment of GPX inhibition, a monobromobimane endpoint assay was used (Fig. 1E). Briefly, 30 μL GPX mixture (0.01% BSA and enzyme [1 nM GPX1 or 25 nM GPX4] in TES buffer) was added to columns 2–24 of 384-well black medium-binding plates (Greiner) using a BioRAPTR FRD. TES buffer was used as a no-enzyme control in column 1. Compounds and controls were added in 11-point dose-response titration and incubated with enzyme for 30 min whereupon 10 μL of 400 μM GSH in TES buffer was added before starting the reaction with the addition of 10 μL 200 μM CHP and the reaction was left at room temperature for 10 min (GPX1) or 15 min (GPX4). Upon GPX activity, GSH was depleted over time, whereupon 500 μM mBBr was added and fluorescence at 394/490 was measured using a Viewlux multimodal detector every 20 s for 20 min.
as §1
Monobromobimane (mBBr) is a heterocyclic compound that reacts readily with low molecular weight thiols, like glutathione. […]

Consider `O=S(=O)(O)CC(S)CS` (stereo not shown) [2,3-dimercaptopropanesulfonate], for which the “inhibition of GR” value in assay [1] is listed as “not GR”.
As for `CC(=O)OC[C@H]1O[C@@H]([S-])[C@H](OC(C)=O)[C@@H](OC(C)=O)[C@@H]1OC(C)=O.CCP(CC)CC.[Au+]` [Auranofin], the “GSH Binding (ΔTm) GPx1; shift in nanoDSF melting temperature” value at GPX1 [2] (100 μM small molecule vs DMSO control, first or only inflection point) was “+8.3 °C”. In addition, on GPX1 [2] (nanoDSF), the “thermal stabilization of GPX1” value is “significant shifts in the melting temperature of GPX1”. On GPX1 [3], this molecule gave an IC50 of 5.3 µM.
